Assay results from patent US10450356B2, “PRAME derived peptides and immunogenic compositions comprising these” (Academisch Ziekenhuis Leiden H.O.D.N. LUMC, priority 2007, dated 2019).

Molecular target: T1, 20S proteasomes purified from a B-LCL cell line (immunoproteasomes) (Homo sapiens, UniProt P28062+P28065+P40306)
T1 construct: 20S proteasomes were purified from a B-LCL cell line; endogenous in cells; purified after Groettrup et al. 1995
Assay: In vitro proteasome mediated cleavage analysis
Format: biochemical
Design: key to Intact in fragment / Intact Fragment: intact epitope found in digestion fragments: (+), present; (-), not present; key to Processing C-term: generation by proteasome-mediated digestion of fragments containing the correct C-terminus: (++) fragments present for >5%; (+) present for <5%; (-) no fragments containing the C-term. were found
Conditions: for Processing C-term: generation by proteasome-mediated digestion of fragments containing the correct C-terminus: 1 h digestion; for Intact Fragment: intact epitope found in digestion fragments: after 1 h digestion; for C-term. generation: generation of C-terminus of the epitope after 1 h digestion; for Intact in fragment: intact epitope found in digestion fragments after 1 h digestion
Outline: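 Cleavage products were analysed by on-line nanoESI Q-TOF mass spectrometry, and relative fragment amounts came from peak intensities. Digests contained 20 μg of 27-mer peptide and 1 μg of 20S immunoproteasome purified from B-LCL cells. They ran at 37° C for 1, 4 or 24 h and were stopped with trifluoroacetic acid.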

CC(C)C[C@H](NC(=O)[C@@H](NC(=O)[C@H](CC(=O)O)NC(=O)[C@H](CC(C)C)NC(=O)CNC(=O)[C@H](CC(=O)O)NC(=O)[C@H](CC(C)C)NC(=O)[C@@H](NC(=O)[C@H](C)N)C(C)C)C(C)C)C(=O)O
Processing C-term: generation by proteasome-mediated digestion of fragments containing the correct C-terminus: -
Intact Fragment: intact epitope found in digestion fragments: -

CC(C)C[C@H](NC(=O)[C@H](CC(C)C)NC(=O)[C@@H](NC(=O)[C@H](CC(=O)O)NC(=O)[C@H](CC(C)C)NC(=O)CNC(=O)[C@H](CC(=O)O)NC(=O)[C@H](CC(C)C)NC(=O)[C@@H](NC(=O)[C@H](C)N)C(C)C)C(C)C)C(=O)O
Processing C-term: generation by proteasome-mediated digestion of fragments containing the correct C-terminus: ++ ((++) fragments present for >5%)
Intact Fragment: intact epitope found in digestion fragments: +
C-term. generation: ++ (abundant (++) present for >5%)
Intact in fragment: +

CC[C@H](C)[C@H](NC(=O)[C@H](CC(C)C)NC(=O)[C@H](Cc1ccc(O)cc1)NC(=O)[C@H](CO)NC(=O)[C@H](Cc1ccccc1)NC(=O)[C@H](CC(C)C)NC(=O)[C@@H](N)CCC(=O)O)C(=O)N[C@@H](CCC(=O)O)C(=O)N[C@@H](CCCCN)C(=O)N[C@H](C(=O)O)C(C)C
Processing C-term: generation by proteasome-mediated digestion of fragments containing the correct C-terminus: -
Intact Fragment: intact epitope found in digestion fragments: -

CC(C)C[C@H](NC(=O)[C@H](CCC(=O)O)NC(=O)[C@H](CC(=O)O)NC(=O)[C@H](CS)NC(=O)[C@H](C)NC(=O)CNC(=O)[C@H](CCC(=O)O)NC(=O)[C@H](CCCCN)NC(=O)[C@H](CC(C)C)NC(=O)[C@@H](N)Cc1ccccc1)C(=O)O
Processing C-term: generation by proteasome-mediated digestion of fragments containing the correct C-terminus: -
Intact Fragment: intact epitope found in digestion fragments: -

CC(C)C[C@H](NC(=O)[C@H](Cc1ccc(O)cc1)NC(=O)[C@H](CO)NC(=O)[C@H](Cc1ccccc1)NC(=O)[C@H](CC(C)C)NC(=O)[C@H](CCC(=O)O)NC(=O)[C@H](CC(=O)O)NC(=O)[C@H](CS)NC(=O)[C@H](C)NC(=O)CN)C(=O)O
Processing C-term: generation by proteasome-mediated digestion of fragments containing the correct C-terminus: -
Intact Fragment: intact epitope found in digestion fragments: -

CC(C)C[C@H](NC(=O)CN)C(=O)N[C@@H](CC(=O)O)C(=O)N[C@H](C(=O)N[C@@H](CC(C)C)C(=O)N[C@@H](CC(C)C)C(=O)N[C@@H](C)C(=O)N[C@@H](CCC(N)=O)C(=O)N[C@@H](CCC(=O)O)C(=O)N[C@H](C(=O)O)C(C)C)C(C)C
Processing C-term: generation by proteasome-mediated digestion of fragments containing the correct C-terminus: -
Intact Fragment: intact epitope found in digestion fragments: -

CC(C)C[C@H](NC(=O)[C@H](Cc1c[nH]cn1)NC(=O)[C@H](CC(C)C)NC(=O)[C@@H](N)Cc1c[nH]cn1)C(=O)N[C@@H](CCC(=O)O)C(=O)N[C@H](C(=O)N[C@@H](Cc1ccccc1)C(=O)N[C@@H](CCCCN)C(=O)N[C@@H](C)C(=O)O)[C@@H](C)O
Processing C-term: generation by proteasome-mediated digestion of fragments containing the correct C-terminus: -
Intact Fragment: intact epitope found in digestion fragments: -

CC[C@H](C)[C@H](N)C(=O)N1CCC[C@H]1C(=O)N[C@H](C(=O)N[C@@H](CCC(=O)O)C(=O)N[C@H](C(=O)N[C@@H](CC(C)C)C(=O)N[C@H](C(=O)N[C@@H](CC(=O)O)C(=O)N[C@@H](CC(C)C)C(=O)N[C@@H](Cc1ccccc1)C(=O)O)C(C)C)C(C)C)C(C)C
Processing C-term: generation by proteasome-mediated digestion of fragments containing the correct C-terminus: -
Intact Fragment: intact epitope found in digestion fragments: -

CC[C@H](C)[C@H](N)C(=O)N[C@H](C(=O)N[C@@H](CC(=O)O)C(=O)N[C@@H](CC(=O)O)C(=O)N[C@@H](CCC(N)=O)C(=O)N[C@@H](CC(C)C)C(=O)N[C@@H](CC(C)C)C(=O)N[C@@H](C)C(=O)N[C@@H](CC(C)C)C(=O)N[C@@H](CC(C)C)C(=O)O)[C@@H](C)O
C-term. generation: + (low abundant (+) present for <5%)
Intact in fragment: +

CC(C)C[C@H](NC(=O)[C@H](CC(=O)O)NC(=O)[C@H](CC(C)C)NC(=O)[C@@H](NC(=O)[C@H](CCC(N)=O)NC(=O)[C@H](CC(C)C)NC(=O)[C@@H](N)CCCCN)C(C)C)C(=O)N[C@@H](CCCNC(=N)N)C(=O)N[C@@H](CCCCN)C(=O)O
Processing C-term: generation by proteasome-mediated digestion of fragments containing the correct C-terminus: -
Intact Fragment: intact epitope found in digestion fragments: -

CC(C)C[C@H](NC(=O)[C@@H](NC(=O)[C@H](CC(N)=O)NC(=O)[C@H](CCCCN)NC(=O)[C@H](CCCCN)NC(=O)[C@H](CCCNC(=N)N)NC(=O)[C@H](CCCCN)NC(=O)[C@@H](NC(=O)[C@@H](N)CCCCN)C(C)C)C(C)C)C(=O)N[C@@H](CCCNC(=N)N)C(=O)O
Processing C-term: generation by proteasome-mediated digestion of fragments containing the correct C-terminus: -
Intact Fragment: intact epitope found in digestion fragments: -

CC(C)C[C@H](NC(=O)[C@@H](N)CC(C)C)C(=O)N[C@@H](C)C(=O)N[C@@H](CCC(N)=O)C(=O)N[C@@H](CCC(=O)O)C(=O)N[C@H](C(=O)N[C@@H](CCCNC(=N)N)C(=O)N1CCC[C@H]1C(=O)N[C@@H](CCCNC(=N)N)C(=O)N[C@@H](CCCNC(=N)N)C(=O)O)C(C)C
Processing C-term: generation by proteasome-mediated digestion of fragments containing the correct C-terminus: -
Intact Fragment: intact epitope found in digestion fragments: -

CC(C)C[C@H](NC(=O)[C@H](CCCNC(=N)N)NC(=O)[C@H](CC(C)C)NC(=O)[C@@H](NC(=O)[C@@H](N)CC(N)=O)C(C)C)C(=O)N[C@@H](CS)C(=O)N[C@@H](CS)C(=O)N[C@@H](CCCCN)C(=O)N[C@@H](CCCCN)C(=O)O
Processing C-term: generation by proteasome-mediated digestion of fragments containing the correct C-terminus: -
Intact Fragment: intact epitope found in digestion fragments: -

CC(C)C[C@H](NC(=O)[C@@H](NC(=O)CNC(=O)[C@H](CC(C)C)NC(=O)[C@@H]1CCCN1C(=O)[C@H](CC(C)C)NC(=O)[C@H](CS)NC(=O)[C@@H](NC(=O)[C@H](Cc1ccccc1)NC(=O)[C@@H]1CCCN1)[C@@H](C)O)C(C)C)C(=O)O
Processing C-term: generation by proteasome-mediated digestion of fragments containing the correct C-terminus: ++ ((++) fragments present for >5%)
Intact Fragment: intact epitope found in digestion fragments: +
C-term. generation: ++ (abundant (++) present for >5%)
Intact in fragment: +

CC(C)C[C@H](NC(=O)CNC(=O)[C@H](CC(=O)O)NC(=O)[C@H](CC(C)C)NC(=O)[C@@H](NC(=O)[C@H](C)NC(=O)[C@H](CCCCN)NC(=O)[C@H](Cc1ccccc1)NC(=O)[C@@H](N)[C@@H](C)O)C(C)C)C(=O)O
Processing C-term: generation by proteasome-mediated digestion of fragments containing the correct C-terminus: -
Intact Fragment: intact epitope found in digestion fragments: -

CC[C@H](C)[C@H](NC(=O)[C@H](CO)NC(=O)[C@H](CC(C)C)NC(=O)[C@@H](N)[C@@H](C)O)C(=O)N[C@H](C(=O)N[C@@H](CC(N)=O)C(=O)N[C@@H](CS)C(=O)N[C@@H](CCCNC(=N)N)C(=O)N[C@@H](CC(C)C)C(=O)O)[C@@H](C)O
C-term. generation: ++ (abundant (++) present for >5%)
Intact in fragment: +

CC(C)C[C@H](NC(=O)CNC(=O)[C@H](CC(=O)O)NC(=O)[C@H](CC(C)C)NC(=O)[C@@H](N)C(C)C)C(=O)N[C@@H](CC(=O)O)C(=O)N[C@H](C(=O)N[C@@H](CC(C)C)C(=O)N[C@@H](CC(C)C)C(=O)N[C@@H](C)C(=O)O)C(C)C
Processing C-term: generation by proteasome-mediated digestion of fragments containing the correct C-terminus: -
Intact Fragment: intact epitope found in digestion fragments: -

CSCC[C@H](NC(=O)[C@H](CC(C)C)NC(=O)[C@@H](N)C(C)C)C(=O)N[C@@H](CCCCN)C(=O)NCC(=O)N[C@@H](CCC(N)=O)C(=O)N[C@@H](Cc1c[nH]cn1)C(=O)N[C@@H](CC(C)C)C(=O)N[C@@H](Cc1c[nH]cn1)C(=O)N[C@@H](CC(C)C)C(=O)O
Processing C-term: generation by proteasome-mediated digestion of fragments containing the correct C-terminus: -
Intact Fragment: intact epitope found in digestion fragments: -

CC(C)C[C@H](NC(=O)[C@H](CCCCN)NC(=O)[C@H](CCCCN)NC(=O)[C@H](CS)NC(=O)[C@H](CS)NC(=O)[C@H](CC(C)C)NC(=O)[C@H](CCCNC(=N)N)NC(=O)[C@H](CC(C)C)NC(=O)[C@@H](N)C(C)C)C(=O)N[C@@H](CCCCN)C(=O)O
Processing C-term: generation by proteasome-mediated digestion of fragments containing the correct C-terminus: -
Intact Fragment: intact epitope found in digestion fragments: -

CC(C)C[C@H](NC(=O)[C@H](CO)NC(=O)[C@H](C)NC(=O)[C@H](CCCNC(=N)N)NC(=O)[C@H](CC(N)=O)NC(=O)CNC(=O)[C@H](CO)NC(=O)[C@@H](N)Cc1c[nH]c2ccccc12)C(=O)N[C@@H](Cc1ccc(O)cc1)C(=O)O
Processing C-term: generation by proteasome-mediated digestion of fragments containing the correct C-terminus: -
Intact Fragment: intact epitope found in digestion fragments: -

CC[C@H](C)[C@H](NC(=O)[C@H](CC(C)C)NC(=O)[C@@H](N)Cc1ccc(O)cc1)C(=O)N[C@@H](CCC(=O)O)C(=O)N[C@@H](CCCCN)C(=O)N[C@H](C(=O)N[C@@H](CCCCN)C(=O)N[C@@H](CCCNC(=N)N)C(=O)N[C@@H](CCCCN)C(=O)O)C(C)C
Processing C-term: generation by proteasome-mediated digestion of fragments containing the correct C-terminus: -
Intact Fragment: intact epitope found in digestion fragments: -

CC[C@H](C)[C@H](NC(=O)[C@H](CC(C)C)NC(=O)[C@@H](N)Cc1ccc(O)cc1)C(=O)N[C@@H](CCC(=O)O)C(=O)N[C@@H](CCCCN)C(=O)N[C@H](C(=O)N[C@@H](CCCCN)C(=O)N[C@@H](CCCNC(=N)N)C(=O)N[C@@H](CCCCN)C(=O)N[C@@H](CCCCN)C(=O)O)C(C)C
Processing C-term: generation by proteasome-mediated digestion of fragments containing the correct C-terminus: -
Intact Fragment: intact epitope found in digestion fragments: -
